# Non-standard residues stand in square brackets, D forms with d. Residues, ends and D or L forms follow the SMILES beside them. NMeH = CN[C@@H](Cc1c[nH]cn1)C(=O)O; NMeF = CN[C@@H](Cc1ccccc1)C(=O)O; NMeI = CC[C@H](C)[C@H](NC)C(=O)O; NMeT = CN[C@H](C(=O)O)[C@@H](C)O; NMeN = CN[C@@H](CC(N)=O)C(=O)O; NMeL = CN[C@@H](CC(C)C)C(=O)O; NMeV = CN[C@H](C(=O)O)C(C)C; NMeS = CN[C@@H](CO)C(=O)O; NMeA = CN[C@@H](C)C(=O)O; Sar = CNCC(=O)O
# Legend:
# [1] = Cytotoxicity against rat RIN5F cells at 225 uM; format: cell-based
# [2] = Inhibition of amylin-induced cytotoxicity in rat RIN5F cells at 225 uM after 24 hrs by MTT assay relative to control; format: functional; design: scale not given: the % may be the effect or the level left
Molecule,Activity [1],Activity [2] [%]
CC(C)C[C@@H](C(=O)N(C)[C@@H](C)C(N)=O)N(C)C(=O)[C@H](CCCNC(=N)N)N(C)C(=O)[C@H](CCC(N)=O)N(C)C(=O)[C@@H](N)[C@H](C)O,Non-toxic,
CC(C)C[C@@H](C(=O)N(C)[C@H](C(=O)N(C)[C@@H](Cc1cnc[nH]1)C(=O)N(C)[C@@H](CO)C(=O)N(C)[C@@H](CO)C(N)=O)C(C)C)N(C)C(=O)[C@@H](N)Cc1ccccc1 (H-F[NMeL][NMeV][NMeH][NMeS][NMeS]-NH2),Non-toxic,
C[C@H](NC(=O)[C@@H](NC(=O)[C@@H](N)CC(N)=O)[C@@H](C)O)C(=O)N[C@H](C(N)=O)[C@@H](C)O (H-NTAT-NH2),Non-toxic,25
CC[C@H](C)[C@@H](C(=O)N(C)[C@@H](CC(C)C)C(N)=O)N(C)C(=O)[C@H](C)N(C)C(=O)CN(C)C(=O)[C@H](Cc1ccccc1)N(C)C(=O)[C@@H](N)CC(N)=O (H-N[NMeF][Sar][NMeA][NMeI][NMeL]-NH2),Non-toxic,
C[C@@H](O)[C@@H](C(=O)N(C)[C@@H](C)C(=O)N(C)[C@H](C(N)=O)[C@@H](C)O)N(C)C(=O)[C@@H](N)CC(N)=O (H-N[NMeT][NMeA][NMeT]-NH2),Non-toxic,
CC(C)[C@@H](C(=O)N(C)CC(=O)N(C)[C@@H](CO)C(N)=O)N(C)C(=O)[C@H](CC(N)=O)N(C)C(=O)[C@H]([C@@H](C)O)N(C)C(=O)[C@@H](N)CO (H-S[NMeT][NMeN][NMeV][Sar][NMeS]-NH2),Non-toxic,
H-FLVHSS-NH2,Non-toxic,20
H-NFGAIL-NH2,Non-toxic,50
H-STNVGS-NH2,Non-toxic,18
H-TQRLA-NH2,Non-toxic,50

# — ChEMBL document CHEMBL1156876, “Design and study of peptide-based inhibitors of amylin cytotoxicity” (Bioorg Med Chem Lett, 2010)
